According to PMC7468108 (Communications Biology, 2020):
pEC50: −log10 of the molar value.

Assays:
[1] = target: T1, pre-formed fibrils of hIAPP (Homo sapiens, UniProt P10997); test: ThT-binding assay, disaggregation of pre-formed hIAPP fibrils; assay type: biochemical; conditions: for % amyloid of hIAPP in absence or presence of inhibitors: hIAPP 10 µM; for Normalized ThT fluorescence kinetics: hIAPP (10 µM) : molecule 1:5
T1 construct: hIAPP is a 37-amino acid neuroendocrine peptide hormone; purchased Peptide 2.0 (USA)
T1 sequence (P10997 34-70 limits assumed): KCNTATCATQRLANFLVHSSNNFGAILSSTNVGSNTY
Procedure: For efficient treatment of proteinopathies it may be advantageous to disassemble amyloid aggregates/fibrils which are usually already present at the time of diagnosis[75]–[77]. […] Then, various doses of the hybrid molecules were added to the pre-formed fibrils and the mixtures were incubated for additional 10 h. The process of disaggregation was monitored by ThT-binding assay, CD spectroscopy, TEM and Congo red staining (Fig. 5).
The experiment was performed according to the previous report. […] Kinetics fluorescence data were collected at 37 °C in triplicate using Infinite M200 microplate reader (Tecan, Switzerland), with measurements acquired at 15 min intervals. Excitation and emission wavelengths were set at 440 nm and 485 nm, respectively.

[2] = test system: SH-SY5Y cells exposed to pre-formed Aβ42 fibrils; test: XTT assay, reduction of Aβ42-induced cytotoxicity in SH-SY5Y; assay type: cell-based, human; design: %Viability: dose or concentration left out as unconfirmed
Procedure: The peptide assemblies were then incubated for further 24 h with SH-SY5Y or HEK-293 cells and cell viability was monitored by XTT assay (Fig. 9). […] The mixtures were then independently applied to the respective cells for 24 h, and cell viability was further measured by XTT assay (Fig. 10a).
The SH-SY5Y and HEK-293 cell lines (2 × 10^5 cells/mL) were cultured in 96-well tissue microplates (100 µL/well) and allowed to adhere overnight at 37 °C. The conjugate molecules were dissolved in DMEM:nutrient mixture F12 (Ham’s) (1:1) (Biological Industries, Israel) at different concentrations. The negative control was prepared as medium without hybrid molecules and treated in the same manner. 100 µL of medium with or without hybrid molecules were added to each well in triplicate. Following incubation for 24 h at 37 °C, cell viability was evaluated using the 2,3-bis(2-methoxy-4-nitro-5-sulfophenyl)-2H-tetrazolium-5-carboxanilide (XTT) cell proliferation assay kit (Biological Industries, Israel) according to the manufacturer’s instructions. Briefly, 100 µL of activation reagent was added to 5 mL of XTT reagent, followed by the addition of 50 µL of activated-XTT solution to each well. After 2 h incubation at 37 °C, color intensity was measured using an ELISA microplate reader at 450 nm and 630 nm. Results are presented as mean and mean standard error. Each experiment was repeated minimum three times.
For the quantitative data derived from ThT and XTT assays, statistical significance, expressed as p-value, was determined using Student’s t-test calculation applied at the end of the experiments, setting tails to 2 (tailed distribution) and type to 2 (samples equal variance), according to reported methods. From the XTT viability assays, EC50 and Emax values were determined from the dose-response curves of each tested molecule using non-linear least-square data fitting, according to literature.

[3] = target: T2, Aβ42 (Homo sapiens, UniProt P05067); test: Congo red birefringence of Aβ42 fibrils formed with the tested molecules; conditions: 5-fold excess of compound
T2 construct: purchased rPeptide (USA)
Excerpt: These fibrils also generated the amyloid specific gold-green birefringence upon staining with Congo red (Fig. 3, bottom panel and Supplementary Fig. 6)[74].

T2 sequence (P05067 672-713 limits assumed): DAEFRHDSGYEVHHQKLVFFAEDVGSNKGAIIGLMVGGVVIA

SMILES: NC(Cc1c[nH]c2ccccc12)C(=O)NC(Cc1c[nH]c2ccccc12)C(=O)O (stereo not drawn) [WW]
- increase of ThT signal of pre-formed hIAPP fibrils ([1]; compound added to pre-formed fibrils): 20%
- % amyloid of hIAPP in absence or presence of inhibitors ([1]; molar ratio hIAPP:tested molecule 1:1): 112.662%
- % amyloid of hIAPP in absence or presence of inhibitors ([1]; molar ratio hIAPP:tested molecule 1:5): 117.610%
- % amyloid of hIAPP in absence or presence of inhibitors ([1]; molar ratio hIAPP:tested molecule 5:1): 104.704%
- Normalized ThT fluorescence kinetics ([1]; time 10.25 h): 100.289
- Normalized ThT fluorescence kinetics ([1]; time 10.5 h): 101.480
- Normalized ThT fluorescence kinetics ([1]; time 10.75 h): 103.392
- Normalized ThT fluorescence kinetics ([1]; time 11 h): 104.551
- Normalized ThT fluorescence kinetics ([1]; time 11.25 h): 105.696
- Normalized ThT fluorescence kinetics ([1]; time 11.5 h): 107.934
- Normalized ThT fluorescence kinetics ([1]; time 11.75 h): 110.096
- Normalized ThT fluorescence kinetics ([1]; time 12 h): 110.792
- Normalized ThT fluorescence kinetics ([1]; time 12.25 h): 111.709
- Normalized ThT fluorescence kinetics ([1]; time 12.5 h): 113.122
- Normalized ThT fluorescence kinetics ([1]; time 12.75 h): 114.844
- Normalized ThT fluorescence kinetics ([1]; time 13 h): 115.638
- Normalized ThT fluorescence kinetics ([1]; time 13.25 h): 116.172
- Normalized ThT fluorescence kinetics ([1]; time 13.5 h): 117.523
- Normalized ThT fluorescence kinetics ([1]; time 13.75 h): 117.888
- Normalized ThT fluorescence kinetics ([1]; time 14 h): 118.165
- Normalized ThT fluorescence kinetics ([1]; time 14.25 h): 118.126
- Normalized ThT fluorescence kinetics ([1]; time 14.5 h): 117.561
- Normalized ThT fluorescence kinetics ([1]; time 14.75 h): 117.932
- Normalized ThT fluorescence kinetics ([1]; time 15 h): 118.466
- Normalized ThT fluorescence kinetics ([1]; time 15.25 h): 118.713
- Normalized ThT fluorescence kinetics ([1]; time 15.5 h): 118.486
- Normalized ThT fluorescence kinetics ([1]; time 15.75 h): 118.695
- Normalized ThT fluorescence kinetics ([1]; time 16 h): 118.857
- Normalized ThT fluorescence kinetics ([1]; time 16.25 h): 118.835
- Normalized ThT fluorescence kinetics ([1]; time 16.5 h): 118.502
- Normalized ThT fluorescence kinetics ([1]; time 16.75 h): 118.398
- Normalized ThT fluorescence kinetics ([1]; time 17 h): 118.694
- Normalized ThT fluorescence kinetics ([1]; time 17.25 h): 118.398
- Normalized ThT fluorescence kinetics ([1]; time 17.5 h): 118.456
- Normalized ThT fluorescence kinetics ([1]; time 17.75 h): 118.427
- Normalized ThT fluorescence kinetics ([1]; time 18 h): 117.817
- Normalized ThT fluorescence kinetics ([1]; time 18.25 h): 117.835
- Normalized ThT fluorescence kinetics ([1]; time 18.5 h): 117.859
- Normalized ThT fluorescence kinetics ([1]; time 18.75 h): 117.995
- Normalized ThT fluorescence kinetics ([1]; time 19 h): 117.576
- Normalized ThT fluorescence kinetics ([1]; time 19.25 h): 117.741
- Normalized ThT fluorescence kinetics ([1]; time 19.5 h): 118.044
- Normalized ThT fluorescence kinetics ([1]; time 19.75 h): 117.625
- Normalized ThT fluorescence kinetics ([1]; time 20 h): 117.610
- %Viability ([2]; Aβ42 […] µM : compound 1:1): 54.466%
- %Viability ([2]; Aβ42 […] µM : compound 1:5): 57.303%
- %Viability ([2]; Aβ42 […] µM : compound 1:10): 57.999%
- %Viability ([2]; Aβ42 […] µM : compound 1:20): 59.030%
- %Viability ([2]; Aβ42 […] µM : compound 5:1): 52.403%
- %Viability ([2]; Aβ42 […] µM : compound 10:1): 48.896%
- %Viability ([2]; Aβ42 […] µM : compound 20:1): 51.423%
- %Viability ([2]; Aβ42 […] µM : compound 50:1): 50.031%
- pEC50 ([2]; Homo sapiens, read-out: Aβ42 EC50): 4.89
- Congo red birefringence of Aβ42, in words [3]: intense gold-green birefringence
